Source: US5668265A, “Bi-directional oligonucleotides that bind thrombin” (Becton Dickinson and Company, priority 1996, dated 1997)

How the values were obtained:
human α thrombin = assay: Competitive binding assay on BIAcore (SPR) against immobilized consensus aptamer; conditions: for Kd: 80 nM human α thrombin, 25° C., pH 7.4, competition with immobilized consensus aptamer, read-out: Apparent Kd
Protocol: Competitive binding assays were used to determine the thrombin binding affinity of the various bi-directional oligonucleotides relative to the affinity of the known thrombin aptamer ^5' GGTTGGTGTGGTTGG^3' (SEQ ID NO:4) (hereafter called the "consensus" aptamer; Bock, L. C. et al, Nature 355, 564 (1992)). The assays were performed on a BIAcore™ biosensor instrument (Pharmacia Biosensor, Uppsala Sweden) by means of Surface Plasmon Resonance (SPR) detection of thrombin bound to consensus aptamer immobilized as described in U.S. patent application Ser. No. 0802,383, now abandoned, filed Aug. 5, 1993 incorporated herein by reference. Competition experiments were conducted at 25° C. by pre-incubating 80 nM human α thrombin for 30 minutes with various concentrations of the bi-directional oligonucleotide to be measured, in a buffer composed of 20 mM Tris-Acetate, 140 mM NaCl, 5 mM KCl, 1 mM CaCl2, 1 mM MgCl2 (pH 7.4). This solution was then passed over the surface containing immobilized consensus aptamer at a flow rate of 3 μL per minute for 10 minutes. The steady state response was measured as a function of bi-directional oligonucleotide concentration. The competition data were analyzed assuming that thrombin and the solution phase oligonucleotide bind monovalently and that thrombin molecules bound to a solution phase oligonucleotide are prohibited from binding to the immobilized consensus aptamer.
In this analysis, the steady state response in the presence of oligonucleotide is proportional to the surface concentration of bound thrombin, and apparent equilibrium dissociation constants (Kd 's) were determined from the variation in SPR response as a function of bi-directional oligonucleotide concentration. (Data were fit to eqn 31 of Pisarchick, M. L. and Thompson, N. L., Biophys J. 58, 1235, to yield the Kd values. In this analysis, it was assumed that the concentration nucleic acid ligand free in solution is equal to the total nucleic acid ligand concentration). The values determined are shown below (SEQ ID NO:4): […]

[1] = test system: 3'-exonuclease (Phosphodiestase I; C. adamanteus Venon); format: in vitro ADME; conditions: 0.005 units exonuclease, 37° C., pH 8.8; for Approximate Half-Life: estimated by visual inspection of autoradiogram
Protocol: It is expected that the 3'--3' linked oligonucleotides will show similar resistance to 3'-exonucleases found in
The various bi-directional nucleic acid ligands to be tested were first labeled with radioactive (^32 p) phosphate as follows:
200 pmol of each oligonucleotide was incubated at 37° C. for 30 minutes in 20 μl of a solution containing 3.0 mM Tricine (pH 7.6), 50 mM TRIS-HCl (pH8), 10 mM MgCl2, 5 mM DTT, 1.0 μM γ-^32 P-ATP (3000 Ci/mmol, 10 mCi/mL), 10 units T4 polynucleotide kinase (New England Biolabs). This labeling reaction was then terminated by heating the mixture at 95° C. for 3 minutes.
To test the resistance of the ^32 P-labeled oligonucleotides to the 3' exonuclease, the following reaction mixtures were assembled: Each bi-directional nucleic acid ligand (25 pmole) was dissolved in 100 μl containing 55 mM Tris-HCl, 55 mM NaCl, 7.5 mM MgCl2 (all at pH8.8). To this mixture 0.005 units of the exonuclease (Phosphodiestase I; C. adamanteus Venon; Pharmacia Biotech, Inc.) was added and the sample was mixed and incubated at 37° C. Five μL aliquots of each reaction were removed at 3, 10, 30, 60, and 100 minutes. The reactions were quenched by placing the aliquots into 25 μL solutions containing 50% (w/v) urea, 20 mM Na2 EDTA, and 0.05% bromophenol blue/zylene cylanol and heating the sample to 90° C. for 2 minutes. The reaction products were analyzed by electrophoretic separation on a denaturing polyacrylamide gel and subsequent autoradiagraphy of the gel.
The half-lives of the various bi-directional nucleic acid ligands under these conditions were estimated by visual inspection of autoradiogram (SEQ ID NO:4): […]

bovine thrombin = assay: Clot time assay in platelet-poor porcine plasma with added thrombin; format: biochemical; conditions: room temperature, FIG. 2
Protocol: PPP was prepared by separating cells from […] by centrifugation of whole citrated porcine blood (Environmental Diagnostics Inc.). Approximately 0.5 ml of PPP was added to 12×75 mm polystyrene test tubes (FALCON, Becton Dickinson) and equilibrated to room temperature in a water bath for 15 minutes. Following equilibration, 25 μl of 250 μg/ml bovine thrombin (Sigma) in saline was added along with varying amounts of bi-directional nucleic acid ligand compounds prepared in Example 3 (specifically Compound #5 and Compound #9) in saline and sufficient saline diluent to bring the total volume to 0.6 ml. At this time 50 μl of 0.4M CaCl2 was added to initiate coagulation and the tubes were quickly capped. Tube contents were mixed on a laboratory inverting mixer and time of clotting noted for each tube type.

With “5'-GGTTGGT-3' (DNA, backbone not given here) [a single copy of this sequence, reference compound]” the “thrombin affinity (in words)” value (human α thrombin; thrombin) was “does not have high affinity for thrombin”.

“^3' GGTTGGTT^5' -p-^5' TTGGTTGG^3' [Compound 4]” was tested, and the Kd (human α thrombin) was 25 nM.

For “^5' GGTTGGTGTGGTTGG^3' [Compound 10, reference compound]”, the Kd (human α thrombin) was 6 nM, the “time to complete degradation by the 3'-exonuclease” value [1] was “less than 3 minutes” and the “Approximate Half-Life” value [1] was less than 3 min.

In the case of “^5' GGTTGGTG^3' -p-^3' TGGTTGG^5' [Compound 1]”, the Kd (human α thrombin) is reported as 224 nM.

For “^5' GGTTGGTTG^3' -p-^3' TTGGTTGG^5' [Compound 3]”, the Kd (human α thrombin) was 11 nM and the “Approximate Half-Life” value [1] was greater than 100 min.

Work on “^5' GGTTGGTT^3' (DNA, backbone not given here) [Compound 12, single oligonucleotide segment, control, reference compound]” yielded a Kd (human α thrombin) of 1500 nM.

“^5' GGTTGGTT^3' -L1 -^3' TTGGTTGG^5' (DNA, backbone not given here; two strands joined 3'-3' by hexaethylene glycol phosphodiester linker, further chemistry not fully specified) [Compound 6, 3'-3' bi-directional oligonucleotide linked through hexaethylene glycol phosphodiester]” was tested, and the Kd (human α thrombin) was 10 nM, the “thrombin affinity (in words)” value (human α thrombin; thrombin) was “high affinity for thrombin” and the “inhibition of exogenous thrombin in plasma (clot time)” value (bovine thrombin) was “inhibits thrombin in porcine plasma”.

Substance “^5' GGTTGGTT^3' -p-^3' TTGGTTGG^5' [Compound 2]” has a Kd (human α thrombin) of 312 nM.

“^5' GGTTGGT^3' -L1 -^3' TGGTTGG^5' (DNA, backbone not given here; two strands joined 3'-3' through linker L1, further chemistry not fully specified) [Compound 5, 3'-3' bi-directional oligonucleotide linked through hexaethylene glycol phosphodiester]” was tested, and the Kd (human α thrombin) was 9 nM, the “Ka (thrombin binding affinity)” value (human α thrombin; thrombin) was > 10^7 M^-1 and the “inhibition of exogenous thrombin in plasma (clot time)” value (bovine thrombin) was “inhibition of exogenous thrombin in plasma”. The “Approximate Half-Life” value [1] was 30 min.
